≈ marks a conversion by molar mass, not a printed value. Where “and” joins values, the source holds several entries; their conditions need not be identical. Equal values may be shown once. Calls of active or inactive are those of the source. The rule behind the calls is not given here.
What was measured:
Mus musculus [1] = assay: Compound was tested for inhibitory activity against P388 leukemia in mice at 400 mg/kg; type: functional, organism-based; parameters: dose 400 mg/kg
[2] = In vitro inhibitory activity against growth of KB cells; type: functional, Homo sapiens; conditions: for IC50: Homo sapiens, KB, read-out: ID50 (the source's name)
Mus musculus [3] = assay: In vivo antitumor activity against leukemia P388 in mice after intraperitoneal administration once a day for 1 and 5 days; type: functional
Mus musculus [4] = assay: In vivo antitumor activity against leukemia P388 in mice after intraperitoneal administration at a dose of 200 mg/kg once a day for 1 and 5 days; type: functional
Mus musculus [5] = assay: In vivo antitumor activity against leukemia P388 in mice after intraperitoneal administration at a dose of 100 mg/kg once a day for 1 and 5 days; type: functional
Mus musculus [6] = assay: In vivo antitumor activity against leukemia P388 in mice after intraperitoneal administration at a dose of 50 mg/kg once a day for 1 and 5 days; type: functional
Mus musculus [7] = assay: In vivo antitumor activity against leukemia P388 in mice after intraperitoneal administration of the compound at a dose of 200 mg/kg once a day for 1 and 5 days; type: functional
Mus musculus [8] = assay: In vivo antitumor activity against leukemia P388 in mice after intraperitoneal administration at a dose of 400 mg/kg once a day for 1 and 5 days; type: functional
Mus musculus [9] = assay: In vivo antitumor activity against leukemia P388 in mice after intraperitoneal administration at a dose of 25 mg/kg once a day for 1 and 5 days; type: functional
Mus musculus [10] = assay: In vivo antitumor activity against leukemia P388 in mice after intraperitoneal administration at a dose of 12.5 mg/kg once a day for 1 and 5 days; type: functional

Structure (SMILES): O=c1oc2ccccc2c(O)c1C1OCCc2ccccc21 (stereo unspecified)
- Activity (Mus musculus [1]): inactive
- ID50 [2]: 340 µM
- IC50 [2]: 100 µg/mL (≈ 340 µM)

Structure (SMILES): Cc1cc(O)c(C(C)C)cc1C1OCCc2ccccc21 (stereo unspecified)
- Activity (Mus musculus [1]): inactive
- ID50 [2]: 57 µM
- IC50 [2]: 16 µg/mL (≈ 56.7 µM)

Structure (SMILES): CC(=O)C1=C(O)CN(C2OCCc3ccccc32)C1=O (stereo unspecified)
- Activity (Mus musculus [1]): inactive
- ID50 [2]: 366 µM
- IC50 [2]: > 100 µg/mL

Structure (SMILES): Oc1ccccc1C1OCCc2ccccc21 (stereo unspecified)
- Activity (Mus musculus [1]): inactive
- ID50 [2]: 90 µM
- IC50 [2]: 20.5 µg/mL (≈ 90.6 µM)

Structure (SMILES): COC(=O)c1ccc(O)c(C2OCCc3ccccc32)c1 (stereo unspecified)
- Activity (Mus musculus [1]): inactive
- ID50 [2]: 352 µM
- IC50 [2]: > 100 µg/mL

Structure (SMILES): Cc1cc(O)c(C(C)C)cc1C(c1ccccc1)c1cc(C(C)C)c(O)cc1C
- ID50 [2]: 34 µM
- IC50 [2]: 13 µg/mL (≈ 33.5 µM)
- T/C (Mus musculus [3]): 102% and 100% and 87%

Structure (SMILES): Clc1ccc2oc(SCC3OCCc4ccccc43)nc2c1 (stereo unspecified)
- Activity (Mus musculus [1]): inactive
- ID50 [2]: 18 µM
- IC50 [2]: 6.1 µg/mL (≈ 18.4 µM)

Structure (SMILES): COc1ccc(C(c2oc(CO)cc(=O)c2O)c2oc(CO)cc(=O)c2O)cc1
- T/C (Mus musculus [4]): 102%
- T/C (Mus musculus [5]): 98%
- ID50 [2]: 249 µM
- IC50 [2]: 100 µg/mL (≈ 249 µM)
- T/C (Mus musculus [6]): 102%

Structure (SMILES): O=C(c1ccccc1)C(c1ccccc1)C1OCCc2ccccc21 (stereo unspecified)
- Activity (Mus musculus [1]): inactive
- ID50 [2]: 305 µM
- IC50 [2]: > 100 µg/mL

Structure (SMILES): Oc1ncc(C2OCCc3ccccc32)c(O)n1 (stereo unspecified)
- Activity (Mus musculus [1]): inactive
- ID50 [2]: 410 µM
- IC50 [2]: > 100 µg/mL

Structure (SMILES): Oc1ccc(C2OCCc3ccccc32)cc1 (stereo unspecified)
- Activity (Mus musculus [1]): inactive
- ID50 [2]: 119 µM
- IC50 [2]: 27 µg/mL (≈ 119 µM)

Structure (SMILES): CC1(C)CC(=O)C(C2OCCc3ccccc32)=C(O)C1 (stereo unspecified)
- Activity (Mus musculus [1]): inactive
- ID50 [2]: 368 µM
- IC50 [2]: > 100 µg/mL

Structure (SMILES): O=C1c2ccccc2CC1C1OCCc2ccccc21 (stereo unspecified)
- Activity (Mus musculus [1]): inactive
- ID50 [2]: 144 µM
- IC50 [2]: 38 µg/mL (≈ 144 µM)

Structure (SMILES): COc1ccc(C(c2ccc(C(C)C)cc(=O)c2O)n2c(=S)oc3ccccc32)cc1 (stereo unspecified)
- T/C (Mus musculus [5]): 113%
- ID50 [2]: 8.5 µM
- IC50 [2]: 3.7 µg/mL (≈ 8.53 µM)
- T/C (Mus musculus [7]): 105%
- T/C (Mus musculus [8]): 133%

Structure (SMILES): S=c1oc2ccc(Cl)cc2n1C1OCCc2ccccc21 (stereo unspecified)
- Activity (Mus musculus [1]): inactive
- ID50 [2]: 268 µM
- IC50 [2]: 85 µg/mL (≈ 267 µM)

Structure (SMILES): CCOC(c1ccc(OC)cc1)c1ccc(C(C)C)cc(=O)c1O (stereo unspecified)
- T/C (Mus musculus [9]): 109%
- IC50 [2]: 0.5 µg/mL (≈ 1.52 µM)
- T/C (Mus musculus [6]): 119%
- T/C (Mus musculus [10]): 96%

Structure (SMILES): S=c1oc2ccc(Cl)cc2n1CC1OCCc2ccccc21 (stereo unspecified)
- Activity (Mus musculus [1]): inactive
- ID50 [2]: 28 µM
- IC50 [2]: 8.9 µg/mL (≈ 26.8 µM)

Structure (SMILES): CC(C)c1ccc(C(Sc2ccccc2)c2ccccc2)c(O)c(=O)c1 (stereo unspecified)
- T/C (Mus musculus [4]): 135%
- T/C (Mus musculus [5]): 108%
- ID50 [2]: 1.4 µM
- IC50 [2]: 0.5 µg/mL (≈ 1.38 µM)
- T/C (Mus musculus [8]): 113%

Structure (SMILES): COc1ccc(C(NC(C)=O)c2ccc(C(C)C)cc(=O)c2O)cc1 (stereo unspecified)
- T/C (Mus musculus [4]): 92%
- T/C (Mus musculus [5]): 92%
- ID50 [2]: 18 µM
- IC50 [2]: 6 µg/mL (≈ 17.6 µM)
- T/C (Mus musculus [8]): 108%

Structure (SMILES): CCOC(c1ccccc1)c1ccc(C(C)C)cc(=O)c1O (stereo unspecified)
- T/C (Mus musculus [9]): 97%
- T/C (Mus musculus [3]): 96%

Structure (SMILES): COc1ccc(C(NC(=O)c2ccccc2)c2ccc(C(C)C)cc(=O)c2O)cc1 (stereo unspecified)
- T/C (Mus musculus [4]): 110%
- T/C (Mus musculus [5]): 104%
- ID50 [2]: 4.2 µM
- IC50 [2]: 1.7 µg/mL (≈ 4.21 µM)
- T/C (Mus musculus [8]): 131%

Structure (SMILES): O=C1c2ccccc2CCC1C1OCCc2ccccc21 (stereo unspecified)
- Activity (Mus musculus [1]): inactive
- ID50 [2]: 151 µM
- IC50 [2]: 42 µg/mL (≈ 151 µM)

Source: ChEMBL document CHEMBL1122911, “Synthesis and antitumor activity of tropolone derivatives. 2” (1985)
